How the values were obtained:
[1] = test system: PA1 (ECACC, 90013101) cells; assay: Cell viability assay (Cell Titre Glo, 72 hours) in PA1 cells; format: cell-based; conditions: Homo sapiens, PA-1
Description: (§1) Example 31: Cell Viability Assays
(§2) Phthalazinone based modulators as described herein were dispensed into 384 well CulturPlates™ (PerkinElmer) using Echo 555 acoustic dispensing in 10-point dose response curves at a final top concentration of 30 μM following a 1 in 3 dilution series. A2058 (ATCC, CRL-11147) or PA1 (ECACC, 90013101) cells were added directly to a compound at a density of 5000 cells per well in a final volume of 50 μL and incubated for 72 hours at 37° C., 5% CO2. Viability was assessed using Cell Titre Glo® (Promega) according to the manufacturer's instructions (25 μL per well) and IC50 curves were generated for each inhibitor using IDBS ActivityBase data analysis software.

[2] = test system: A2058 (ATCC, CRL-11147) cells; assay: Cell viability assay (Cell Titre Glo, 72 hours) in A2058 cells; format: cell-based; conditions: Homo sapiens
Description: as §1, §2

Compound	IC50 [1] [µM]	IC50 [2] [µM]
Cn1cc(C(=O)N2CCN(c3ccccc3)CC2)c2ccccc2c1=O [Compound 1, 2-methyl-4-(4-phenylpiperazine-1-carbonyl)isoquinolin-1-one]	1 to 10	1 to 10
Cn1nc(C(=O)N2CCC(c3ccccc3)CC2)c2ccccc2c1=O [Compound 2]	1 to 10	10 to 20
CCn1nc(C(=O)N2CCN(c3ccccc3)CC2)c2ccccc2c1=O [Compound 3, 2-ethyl-4-(4-phenylpiperazine-1-carbonyl)phthalazin-1-one]	≤ 1	1 to 10
CC(C)n1nc(C(=O)N2CCN(c3ccccc3)CC2)c2ccccc2c1=O [Compound 4]	10 to 20	> 20
CCCn1nc(C(=O)N2CCN(c3ccccc3)CC2)c2ccccc2c1=O [Compound 5]	10 to 20	> 20
O=C(c1nn(CC(F)(F)F)c(=O)c2ccccc12)N1CCN(c2ccccc2)CC1 [Compound 6]	> 20	> 20
O=C(c1nn(CC(F)F)c(=O)c2ccccc12)N1CCN(c2ccccc2)CC1 [Compound 7]	> 20	> 20
O=C(c1nn(C2COC2)c(=O)c2ccccc12)N1CCN(c2ccccc2)CC1 [Compound 8]	> 20	> 20
O=C(c1nn(C2CC2)c(=O)c2ccccc12)N1CCN(c2ccccc2)CC1 [Compound 9, 2-cyclopropyl-4-(4-phenylpiperazine-1-carbonyl)phthalazin-1-one]	≤ 1	1 to 10
Cc1ccc(N2CCN(C(=O)c3nn(C)c(=O)c4ccccc34)CC2)cc1 [Compound 10, 2-methyl-4-[4-(p-tolyl)piperazine-1-carbonyl]phthalazin-1-one]	> 20	> 20
Cn1ccc(N2CCN(C(=O)c3nn(C)c(=O)c4ccccc34)CC2)n1 [Compound 11]	> 20	> 20
COc1cc(N2CCN(C(=O)c3nn(C)c(=O)c4ccccc34)CC2)cnn1 [Compound 12]	10 to 20	10 to 20
COc1cc(F)cnc1N1CCN(C(=O)c2nn(C)c(=O)c3ccccc23)CC1 [Compound 13]	1 to 10	10 to 20
COc1cccnc1N1CCN(C(=O)c2nn(C)c(=O)c3ccccc23)CC1 [Compound 14]	≤ 1	1 to 10
COc1cnccc1N1CCN(C(=O)c2nn(C)c(=O)c3ccccc23)CC1 [Compound 15]	≤ 1	1 to 10
COc1nccnc1N1CCN(C(=O)c2nn(C)c(=O)c3ccccc23)CC1 [Compound 16]	1 to 10	10 to 20
Cn1nc(C(=O)N2CCN(c3ncccc3C3CC3)CC2)c2ccccc2c1=O [Compound 17]	≤ 1	≤ 1
Cn1nc(C(=O)N2CCN(c3ccncc3F)CC2)c2ccccc2c1=O [Compound 18]	> 20	> 20
Cn1nc(C(=O)N2CCN(c3ncc(F)cc3C3CC3)CC2)c2ccccc2c1=O [Compound 19]	≤ 1	1 to 10
COc1ncccc1N1CCN(C(=O)c2nn(C)c(=O)c3ccccc23)CC1 [Compound 20]	1 to 10	1 to 10
Cn1nc(C(=O)N2CCN(c3nccnc3C3CC3)CC2)c2ccccc2c1=O [Compound 21]	1 to 10	> 20
COc1cncnc1N1CCN(C(=O)c2nn(C)c(=O)c3ccccc23)CC1 [Compound 22]	> 20	> 20
COc1ncc(Cl)cc1N1CCN(C(=O)c2nn(C)c(=O)c3ccccc23)CC1 [Compound 23]	≤ 1	≤ 1
COc1cc(C#N)ncc1N1CCN(C(=O)c2nn(C)c(=O)c3ccccc23)CC1 [Compound 24]	> 20	> 20
Cc1cccc(N2CCN(C(=O)c3nn(C)c(=O)c4ccccc34)CC2)c1 [Compound 25]	≤ 1	≤ 1
Cn1nc(C(=O)N2CCN(c3ccc(C(F)(F)F)cc3)CC2)c2ccccc2c1=O [Compound 27]	1 to 10	1 to 10
